From PubChem BioAssay (NCI)
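The concentration for 50% growth inhibition is given as GI50. TGI denotes the concentration required for complete inhibition of growth.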

Legend:
Experiment in all cases: inhibition of tumour cell growth, NCI panel, 384-well format
TK-10 renal = test system: TK-10 renal
CCRF-CEM leukemia = test system: CCRF-CEM leukemia
ACHN renal = test system: ACHN renal
UACC-257 melanoma = test system: UACC-257 melanoma
OVCAR-4 ovarian = test system: OVCAR-4 ovarian
SN12C renal = test system: SN12C renal
MCF7 breast = test system: MCF7 breast
NCI-H23 lung = test system: NCI-H23 lung
MOLT-4 leukemia = test system: MOLT-4 leukemia
CAKI-1 renal = test system: CAKI-1 renal
LOX IMVI melanoma = test system: LOX IMVI melanoma
DU-145 prostate = test system: DU-145 prostate
NCI/ADR-RES ovarian = test system: NCI/ADR-RES ovarian
SF-295 CNS = test system: SF-295 CNS
NCI-H322M lung = test system: NCI-H322M lung
A549 NSCLC = test system: A549 NSCLC
HOP-92 NSCLC = test system: HOP-92 NSCLC
PC-3 prostate = test system: PC-3 prostate
SNB-19 CNS = test system: SNB-19 CNS
NCI-H226 lung = test system: NCI-H226 lung
RXF 393 renal = test system: RXF 393 renal
OVCAR-5 ovarian = test system: OVCAR-5 ovarian
HOP-62 NSCLC = test system: HOP-62 NSCLC
SR leukemia = test system: SR leukemia
K-562 leukemia = test system: K-562 leukemia
OVCAR-3 ovarian = test system: OVCAR-3 ovarian
SK-MEL-5 melanoma = test system: SK-MEL-5 melanoma
OVCAR-8 ovarian = test system: OVCAR-8 ovarian
HL-60(TB) leukemia = test system: HL-60(TB) leukemia
UO-31 renal = test system: UO-31 renal
T-47D breast = test system: T-47D breast
MDA-MB-468 breast = test system: MDA-MB-468 breast
MALME-3M melanoma = test system: MALME-3M melanoma
NCI-H460 NSCLC = test system: NCI-H460 NSCLC
SK-MEL-28 melanoma = test system: SK-MEL-28 melanoma
BT-549 breast = test system: BT-549 breast
HCT-15 colon = test system: HCT-15 colon
RPMI-8226 leukemia = test system: RPMI-8226 leukemia
HCT-116 colon = test system: HCT-116 colon
SW-620 colon = test system: SW-620 colon
NCI-H522 lung = test system: NCI-H522 lung

SMILES: Cc1nc(-c2nc(-c3ccc(OC(F)(F)F)cc3)no2)nn1Cc1cccc(N2CCC(S(C)(=O)=O)CC2)c1
- GI50 (TK-10 renal): 8.15 µM
- TGI (TK-10 renal): 78.8 µM
- GI50 (CCRF-CEM leukemia): < 0.01 µM
- TGI (CCRF-CEM leukemia): 3.59 µM
- GI50 (ACHN renal): 10.4 µM
- TGI (ACHN renal): 34.6 µM
- GI50 (UACC-257 melanoma): 0.0565 µM
- TGI (UACC-257 melanoma): 0.827 µM
- GI50 (OVCAR-4 ovarian): 0.292 µM
- TGI (OVCAR-4 ovarian): 24.8 µM
- GI50 (SN12C renal): 20.4 µM
- TGI (SN12C renal): > 100 µM
- GI50 (MCF7 breast): 0.221 µM
- TGI (MCF7 breast): 50.8 µM
- GI50 (NCI-H23 lung): < 0.01 µM
- TGI (NCI-H23 lung): < 0.01 µM
- GI50 (MOLT-4 leukemia): 0.0271 µM
- TGI (MOLT-4 leukemia): 0.208 µM
- GI50 (CAKI-1 renal): 4.66 µM
- TGI (CAKI-1 renal): 71.1 µM
- GI50 (LOX IMVI melanoma): 0.0479 µM
- TGI (LOX IMVI melanoma): > 100 µM
- GI50 (DU-145 prostate): 29.4 µM
- TGI (DU-145 prostate): > 100 µM
- GI50 (NCI/ADR-RES ovarian): < 0.01 µM
- TGI (NCI/ADR-RES ovarian): 0.0515 µM
- GI50 (SF-295 CNS): 0.0932 µM
- TGI (SF-295 CNS): 37 µM
- GI50 (NCI-H322M lung): 0.0149 µM
- TGI (NCI-H322M lung): 16.4 µM
- GI50 (A549 NSCLC): 2.61 µM
- TGI (A549 NSCLC): 33.9 µM
- GI50 (HOP-92 NSCLC): 0.567 µM
- TGI (HOP-92 NSCLC): 46.2 µM
- GI50 (PC-3 prostate): 17.3 µM
- TGI (PC-3 prostate): > 100 µM
- GI50 (SNB-19 CNS): 47.2 µM
- TGI (SNB-19 CNS): > 100 µM
- GI50 (NCI-H226 lung): 0.664 µM
- TGI (NCI-H226 lung): 39.5 µM
- GI50 (RXF 393 renal): < 0.01 µM
- TGI (RXF 393 renal): < 0.01 µM
- GI50 (OVCAR-5 ovarian): 86 µM
- TGI (OVCAR-5 ovarian): > 100 µM
- GI50 (HOP-62 NSCLC): < 0.01 µM
- TGI (HOP-62 NSCLC): 20.6 µM
- GI50 (SR leukemia): < 0.01 µM
- TGI (SR leukemia): < 0.01 µM
- GI50 (K-562 leukemia): < 0.01 µM
- TGI (K-562 leukemia): > 100 µM
- GI50 (OVCAR-3 ovarian): 5.09 µM
- TGI (OVCAR-3 ovarian): > 100 µM
- GI50 (SK-MEL-5 melanoma): < 0.01 µM
- TGI (SK-MEL-5 melanoma): 11.8 µM
- GI50 (OVCAR-8 ovarian): < 0.01 µM
- TGI (OVCAR-8 ovarian): 19.6 µM
- GI50 (HL-60(TB) leukemia): 0.156 µM
- TGI (HL-60(TB) leukemia): 0.29 µM
- GI50 (UO-31 renal): 7.92 µM
- TGI (UO-31 renal): 36.6 µM
- GI50 (T-47D breast): < 0.01 µM
- TGI (T-47D breast): 23.4 µM
- GI50 (MDA-MB-468 breast): < 0.01 µM
- TGI (MDA-MB-468 breast): < 0.01 µM
- GI50 (MALME-3M melanoma): 23.6 µM
- TGI (MALME-3M melanoma): 56.6 µM
- GI50 (NCI-H460 NSCLC): < 0.01 µM
- TGI (NCI-H460 NSCLC): 0.0183 µM
- GI50 (SK-MEL-28 melanoma): 28 µM
- TGI (SK-MEL-28 melanoma): 80.9 µM
- GI50 (BT-549 breast): 2.1 µM
- TGI (BT-549 breast): 26.2 µM
- GI50 (HCT-15 colon): 6.19 µM
- TGI (HCT-15 colon): > 100 µM
- GI50 (RPMI-8226 leukemia): < 0.01 µM
- TGI (RPMI-8226 leukemia): 1.03 µM
- GI50 (HCT-116 colon): < 0.01 µM
- TGI (HCT-116 colon): 2.82 µM
- GI50 (SW-620 colon): 11.5 µM
- TGI (SW-620 colon): > 100 µM
- GI50 (NCI-H522 lung): 1.08 µM
- TGI (NCI-H522 lung): 17.6 µM
